From article PMC4099110, “Synthesis and Evaluation of Novel Pyrroles and Pyrrolopyrimidines as Anti-Hyperglycemic Agents” (BioMed Research International, 2014)
“And” between values parts separate entries of the source, which are not always exact repeats. Equal entries are not always repeated.

What was measured:
Male Wistar rats = assay: Sucrose-Loaded Model (SLM), blood glucose AUC; type: in vivo, rat; settings: oral gavage, sucrose load 10 gm/kg, mean AUC of blood glucose 30-120 min, dose equivalent to Glimepiride 4 mg/kg by M.wt, vs untreated normal control
Description: The complete course of the experiment was conducted using male Wistar albino rats (200–250 g), reared and maintained in the animal house of the institution and provided free access to pelleted food and water ad libitum. The rats were maintained in a controlled environment (12 h light and dark cycle) for about a week for acclimatization. The protocol of the study was approved by the animal ethics committee of the Faculty of Pharmacy, Helwan University (10-01-2012). The study was conducted in accordance with the EC, directive 86/609/EEC for animal experiments.
Glimepiride (Amaryl) was used as a standard antidiabetic (4 mg/kg) in 1% gum acacia and administered orally. Equivalent doses of all derivatives were calculated according to their molecular weight [M·wt].
Male Wistar rats were fasted overnight. Blood was collected initially and then the compounds were given to corresponding groups consisting of six rats each by oral gavage. A sucrose load of (10 gm/kg) body weight was given to each rat after half an hour posttest treatment. Blood was collected in 30, 60, 90, and 120 min after sucrose load. The percentages (%) fallen in blood glucose level were calculated according to the AUC method.
Data were represented as mean area under curve (AUC) ± SD. Significant differences between groups was tested using GraphPad InStat (Graph software Inc., V 3.05, Ralph Stahlman, Purdue University). Appropriate graphs were plotted using Microsoft Excel 2007. P value less than 0.05 was considered statistically significant.

male Wistar albino rats = assay: Streptozotocin (STZ) model of diabetes, blood glucose AUC; type: in vivo, rat; settings: for Potency of antihyperglycemic derivatives compared to Amaryl: decrease in blood glucose relative to Amaryl = 100%, model not stated
Description: The complete course of the experiment was conducted using male Wistar albino rats (200-250 g), reared and maintained in the animal house of the institution and provided free access to pelleted food and water ad libitum. The rats were maintained in a controlled environment (12 h light and dark cycle) for about a week for acclimatization. The protocol of the study was approved by the animal ethics committee of the Faculty of Pharmacy, […] University (10-01-2012). The study was conducted in accordance with the EC, directive 86/609/EEC for animal experiments. […] Equivalent doses of all derivatives were calculated according to their molecular weight [M·wt]. Diabetes was induced in overnight fasted rats with a single intraperitoneal injection of streptozotocin (STZ) (Sigma-Aldrich, Co., St. Louis, USA. Catalog number: 1001062761) in a dose of 65 mg/kg. STZ was freshly dissolved in ice cold citrate buffer (0.01 M, pH 4.5) prior to injection. […] Group 2, diabetic + Glimepiride ([…]) (4 mg/kg), served as a reference antidiabetic drug. Groups (3-14) were given the various pyrrole derivatives ([…], b, f, and VIIIf, a, resp.). The treated groups administered the […] and different derivatives orally. For each group, blood glucose was estimated at zero, one, two, four, and six hours after oral administration of derivatives using glucometer (Gluco Dr Super Sensor, AllMedicus Co., Ltd., Anyang, Gyeonggi, Korea). Data were represented as mean area under curve (AUC) ± SD. Significant differences between groups was tested using GraphPad InStat (Graph software Inc., V 3.05, Ralph […], Purdue University). Appropriate graphs were plotted using Microsoft Excel 2007.

[1] = In vivo acute toxicity study, serum liver and kidney markers; design: species or system rat; settings: for ALP / ALT / AST / Creatinine: rat serum; for levels of sera ALT, AST, ALP, and creatinine versus control untreated group: rats
Description: Alanine aminotransferase (ALT) and aspartate aminotransferase (AST) activities in serum were measured according to the Reitman-Frankel calorimetric transaminase procedure, whereas alkaline phosphatase (ALP) was assayed by the kinetic enzymatic method by measuring the rate of hydrolysis of p-nitrophenyl phosphate by ALP according to Henry; all were measured as indicators of hepatic injury. Serum creatinine levels were assayed as an indicator for renal injury in the samples by a calorimetric method, using commercial diagnostic kits (Diamond Diagnostics, Egypt).

[2] = as above; settings: rat
[3] = oral, STZ 65 mg/kg i.p. diabetic rats, mean AUC of blood glucose 0-6 h, dose equivalent to Glimepiride 4 mg/kg by M.wt, vs diabetic control

Row | melting point [°C] | SMILES | inhibition in vivo at 4 mg/kg (Male Wistar rats; Rattus norvegicus, 2 h, read-out: % reduction in blood glucose compared to control, SLM) [%] | inhibition in vivo at 4 mg/kg (male Wistar albino rats; Rattus norvegicus, oral, STZ 65 mg/kg i.p. diabetic rats, mean AUC of blood glucose 0-6 h, dose equivalent to Glimepiride 4 mg/kg by M.wt, vs diabetic control, read-out: % reduction in blood glucose compared to control, STZ) [%] | Potency of antihyperglycemic derivatives compared to Amaryl (male Wistar albino rats) | % reduction in blood glucose compared to control, SLM (Male Wistar rats) | % reduction in blood glucose compared to control, STZ (male Wistar albino rats; [3]) | ALP [1] [U/L] | ALT [1] [U/L] | AST [1] [U/L] | Creatinine [1] [mg/dL] | levels of sera ALT, AST, ALP, and creatinine versus control untreated group [1] | death or toxicity symptoms [2]
1 |  | CCC1=C(C)CN(C(=O)NCCc2ccc(S(=O)(=O)NC(=O)N[C@H]3CC[C@H](C)CC3)cc2)C1=O [Amaryl, Glimepiride, reference compound] | 27.7 | 30.4 | 100% |  |  |  |  |  |  |  | 
2 | 158 to 160 | Cc1nc(Cl)c2c(-c3ccccc3)c(-c3ccccc3)n(-c3c(C)n(C)n(-c4ccccc4)c3=O)c2n1 [IVg, 4-(4-Chloro-2-methyl-5,6-diphenyl-7H-pyrrolo[2,3-d]pyrimidin-7-yl)-1,5-dimethyl-2-phenyl-1H-pyrazol-3(2H)-one] |  |  |  | 13 ^ a % | 11.2 ^ a % |  |  |  |  |  | 
3 |  | N#Cc1c(-c2ccccc2)c(-c2ccccc2)n(Cc2ccccc2)c1N [Ia] |  |  | 109.4% and 109.43% | 17.4% and 17.4 ^ a % | 33.3% and 33.3 ^ a % | 68.5 ± 12.3 | 17.9 ± 2.7 | 69.4 ± 9.5 | 0.8 ± 0.16 | not significantly changed | did not die or show any toxicity symptoms
4 |  | Cc1c(-n2cc(-c3ccccc3)c(C#N)c2N)c(=O)n(-c2ccccc2)n1C [Ie, 2-Amino-1-(1,5-dimethyl-3-oxo-2-phenyl-2,3-dihydro-1H -pyrazol-4-yl)-4-phenyl-1H -pyrrole-3-carbonitrile] |  |  | 97% and 96.99% | 16.7% and 16.7 ^ a % | 29.5% and 29.5 ^ a % | 73.9 ± 13.2 | 20.5 ± 3.1 | 62.7 ± 9.7 | 0.77 ± 0.14 | not significantly changed | did not die or show any toxicity symptoms
